Assay results taken from US9771341B2, “Piperazine carbamates and methods of making and using same” (Abide Therapeutics, Inc., priority 2015, dated 2017).

Tests used:
[1] = target: T1, FAAH (Mus musculus, UniProt O08914); assay: Mouse brain proteomes from inhibitor treated mice, FAAH; assay type: in vivo; details: 5 mg/kg oral gavage, C57Bl/6J mice, brain proteome 4 h after administration
T1 construct: Proteomes (mouse brain membrane fraction or cell lysates); from tissue; host or cells: mouse brain membrane fraction (or unspecified cell lysates)
T1 sequence (O08914 1-579): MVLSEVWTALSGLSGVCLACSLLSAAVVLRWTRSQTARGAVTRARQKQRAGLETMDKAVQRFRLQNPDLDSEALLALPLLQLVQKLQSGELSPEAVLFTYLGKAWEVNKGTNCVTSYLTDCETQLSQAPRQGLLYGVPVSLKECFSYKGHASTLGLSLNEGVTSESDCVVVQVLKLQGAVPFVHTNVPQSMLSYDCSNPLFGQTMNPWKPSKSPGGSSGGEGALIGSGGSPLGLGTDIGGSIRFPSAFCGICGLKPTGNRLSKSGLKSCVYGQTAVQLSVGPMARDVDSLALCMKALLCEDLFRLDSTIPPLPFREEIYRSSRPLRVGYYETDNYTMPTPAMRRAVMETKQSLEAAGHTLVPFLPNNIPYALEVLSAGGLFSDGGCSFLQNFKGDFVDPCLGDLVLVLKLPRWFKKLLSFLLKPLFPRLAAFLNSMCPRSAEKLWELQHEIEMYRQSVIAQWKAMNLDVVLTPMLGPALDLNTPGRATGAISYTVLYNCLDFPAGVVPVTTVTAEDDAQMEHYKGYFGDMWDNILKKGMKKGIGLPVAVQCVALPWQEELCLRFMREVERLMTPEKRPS
Description: Preparation of Mouse Brain Proteomes from Inhibitor Treated Mice.
Inhibitors were administered to wild-type C57Bl/6J by oral gavage in a vehicle of polyethylene glycol. Each animal was sacrificed 4 h following administration and brain proteomes were prepared and analyzed according to previously established methods (See Niphakis, M. J., et al. (2011) ACS Chem. Neurosci. and Long, J. Z., et al. Nat. Chem. Biol. 5:37-44)

[2] = target: T1, FAAH; assay: In vitro competitive activity-based protein profiling (mouse), FAAH; assay type: biochemical; details: for inhibition at 1 µM: mouse proteome, in vitro; for IC50: mouse brain membrane fraction or cell lysates, 30 min preincubation at 37° C, FP-Rh probe
In short: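 Competitive ABPP: inhibitor exposure (30 min, 37° C) of mouse brain membrane or lysate proteome at 1.0 mg/mL, then labelling with FP-Rh for another 30 min. Activity quantified by in-gel fluorescence of FAAH bands after SDS-PAGE.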

[3] = target: T2, ABHD6 (Mus musculus, UniProt Q8R2Y0); assay: In vitro competitive activity-based protein profiling (mouse), ABHD6; assay type: biochemical; details: for inhibition at 1 µM: mouse proteome, in vitro, read-out: % Inhibition at 1 μM ABHD6; for IC50: mouse brain membrane fraction or cell lysates, 30 min preincubation at 37° C, FP-Rh probe
T2 construct: Proteomes (mouse brain membrane fraction or cell lysates); from tissue; host or cells: mouse brain membrane fraction (or unspecified cell lysates)
T2 sequence (Q8R2Y0 1-336): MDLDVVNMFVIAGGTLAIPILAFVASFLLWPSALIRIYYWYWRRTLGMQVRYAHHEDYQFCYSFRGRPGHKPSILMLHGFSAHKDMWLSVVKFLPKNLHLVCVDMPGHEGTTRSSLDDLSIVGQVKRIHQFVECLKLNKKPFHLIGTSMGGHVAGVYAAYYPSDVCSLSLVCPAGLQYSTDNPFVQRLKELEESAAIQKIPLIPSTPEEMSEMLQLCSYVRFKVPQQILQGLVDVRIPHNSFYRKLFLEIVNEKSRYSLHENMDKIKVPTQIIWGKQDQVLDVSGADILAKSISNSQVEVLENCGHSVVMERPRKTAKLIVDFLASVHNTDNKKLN
Description: (§1) In Vitro Competitive Activity-Based Protein Profiling (Mouse).
(§2) Proteomes (mouse brain membrane fraction or cell lysates) (50 μL, 1.0 mg/mL total protein concentration) were preincubated with varying concentrations of inhibitors at 37° C. After 30 min, FP-Rh (1.0 μL, 50 μM in DMSO) was added and the mixture was incubated for another 30 min at 37° C. Reactions were quenched with SDS loading buffer (50 μL-4×) and run on SDS-PAGE.

[4] = target: T3, MAGL (Mus musculus, UniProt O35678); assay: In vitro competitive activity-based protein profiling (mouse), MAGL; assay type: biochemical; details: for inhibition at 1 µM: mouse proteome, in vitro, read-out: % Inhibition at 1 μM MAGL; for IC50: mouse brain membrane fraction or cell lysates, 30 min preincubation at 37° C, FP-Rh probe
T3 construct: Proteomes (mouse brain membrane fraction or cell lysates); from tissue; host or cells: mouse brain membrane fraction (or unspecified cell lysates)
T3 sequence (O35678 1-303): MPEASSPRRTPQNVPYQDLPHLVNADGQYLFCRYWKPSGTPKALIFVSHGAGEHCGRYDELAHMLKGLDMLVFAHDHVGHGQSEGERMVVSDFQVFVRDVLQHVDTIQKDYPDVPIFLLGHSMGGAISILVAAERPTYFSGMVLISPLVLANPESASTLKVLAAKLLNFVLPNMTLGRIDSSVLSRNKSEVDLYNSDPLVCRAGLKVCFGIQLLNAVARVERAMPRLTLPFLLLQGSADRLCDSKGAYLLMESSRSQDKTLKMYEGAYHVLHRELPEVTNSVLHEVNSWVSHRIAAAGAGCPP
Description: as §1, §2

Row | inhibition at 5 mg/kg [1] [%] | inhibition at 1 µM [2] [%] | IC50 [2] [nM] | inhibition at 1 µM [3] [%] | IC50 [3] [nM] | inhibition at 1 µM [4] [%] | IC50 [4] [nM] | Structure (SMILES)
1 | < 25 | < 25 | > 1000 |  |  |  |  | O=C(OC(C(F)(F)F)C(F)(F)F)N1CCN(Cc2ccc(C(F)(F)F)cc2N2CC3CCC(C2)O3)CC1 [Example 59, 1,1,1,3,3,3-hexafluoropropan-2-yl 4-(2-(8-oxa-3-azabicyclo[3.2.1]octan-3-yl)-4-(trifluoromethyl)benzyl)piperazine-1-carboxylate]
2 |  | < 25 | > 1000 | > 75 | 100 to 1000 | > 75 | 100 to 1000 | O=C(OC(C(F)(F)F)C(F)(F)F)N1CCN(Cc2cc(N3CCC(CO)CC3)cc(C(F)(F)F)c2)CC1 [Example 91, 1,1,1,3,3,3-hexafluoropropan-2-yl 4-(3-(4-(hydroxymethyl)piperidin-1-yl)-5-(trifluoromethyl)benzyl)piperazine-1-carboxylate]
3 |  | < 25 | > 1000 | 25 to 75 | 100 to 1000 | > 75 | < 100 | O=C(O)C1CCN(c2cc(CN3CCN(C(=O)OC(C(F)(F)F)C(F)(F)F)CC3)ccc2C(F)(F)F)C1 (stereo not drawn) [Example 80, 1-(5-((4-(((1,1,1,3,3,3-hexafluoropropan-2-yl)oxy)carbonyl)piperazin-1-yl)methyl)-2-(trifluoromethyl)phenyl)pyrrolidine-3-carboxylic acid]
4 |  |  | > 1000 |  | 100 to 1000 |  | < 100 | COC(=O)c1cc(CN2CCN(C(=O)OC(C(F)(F)F)C(F)(F)F)CC2)ccc1N1CCOCC1 [Example 5, 1,1,1,3,3,3-hexafluoropropan-2-yl 4-(3-(methoxycarbonyl)-4-morpholinobenzyl)piperazine-1-carboxylate]
5 |  | < 25 | > 1000 | > 75 | 100 to 1000 | > 75 | < 100 | O=C(O)C(=O)c1cc(CN2CCN(C(=O)OC(C(F)(F)F)C(F)(F)F)CC2)cc(C(F)(F)F)c1 [Example 93, 2-(3-((4-(((1,1,1,3,3,3-hexafluoropropan-2-yl)oxy)carbonyl)piperazin-1-yl)methyl)-5-(trifluoromethyl)phenyl)-2-oxoacetic acid]
6 |  | < 25 | > 1000 | < 25 | > 1000 | > 75 | 100 to 1000 | O=C(OC(C(F)(F)F)C(F)(F)F)N1CCN(Cc2ccc(Cl)cc2N2CCC(C(=O)N3CCCC3)CC2)CC1 [Example 37, 1,1,1,3,3,3-hexafluoropropan-2-yl 4-(4-chloro-2-(4-(pyrrolidine-1-carbonyl)piperidin-1-yl)benzyl)piperazine-1-carboxylate]
7 |  | < 25 | > 1000 | < 25 | > 1000 | > 75 | 100 to 1000 | O=C(OC(C(F)(F)F)C(F)(F)F)N1CCN(Cc2ccc(C(F)(F)F)cc2N2CCC(C(=O)N3CCCC3)CC2)CC1 [Example 68, 1,1,1,3,3,3-hexafluoropropan-2-yl 4-(2-(4-(pyrrolidine-1-carbonyl)piperidin-1-yl)-4-(trifluoromethyl)benzyl)piperazine-1-carboxylate]
8 |  | < 25 | > 1000 | > 75 | 100 to 1000 | > 75 | 100 to 1000 | CC(=O)N[C@H]1CCN(Cc2cccc(CN3CCN(C(=O)OC(C(F)(F)F)C(F)(F)F)CC3)c2C)C1 [Example 18, 1,1,1,3,3,3-hexafluoropropan-2-yl (S)-4-(3-((3-acetamidopyrrolidin-1-yl)methyl)-2-methylbenzyl)piperazine-1-carboxylate]
9 |  | < 25 |  | < 25 |  | > 75 |  | CS(=O)(=O)N[C@@H]1CCN(c2cccc(C(F)(F)F)c2CN2CCN(C(=O)OC(C(F)(F)F)C(F)(F)F)CC2)C1 [Example 47, 1,1,1,3,3,3-hexafluoropropan-2-yl (R)-4-(2-(3-(methylsulfonamido)pyrrolidin-1-yl)-6-(trifluoromethyl)benzyl)piperazine-1-carboxylate]
10 |  | < 25 | > 1000 | 25 to 75 | 100 to 1000 | > 75 | 100 to 1000 | O=C(OC(C(F)(F)F)C(F)(F)F)N1CCN(Cc2cc(N3CCCC3CO)cc(C(F)(F)F)c2)CC1 (stereo not drawn) [Example 88, 1,1,1,3,3,3-hexafluoropropan-2-yl 4-(3-(2-(hydroxymethyl)pyrrolidin-1-yl)-5-(trifluoromethyl)benzyl)piperazine-1-carboxylate]
11 |  | < 25 | > 1000 | > 75 | < 100 | 25 to 75 | 100 to 1000 | O=C(O)C1CCN(c2cc(CN3CCN(C(=O)OC(C(F)(F)F)C(F)(F)F)CC3)cc(C(F)(F)F)c2)CC1 [Example 94, 1-(3-((4-(((1,1,1,3,3,3-hexafluoropropan-2-yl)oxy)carbonyl)piperazin-1-yl)methyl)-5-(trifluoromethyl)phenyl)piperidine-4-carboxylic acid]
12 |  |  | > 1000 |  | > 1000 |  | < 100 | C#CCO[C@@H]1CCN(c2cc(C(F)(F)F)ccc2CN2CCN(C(=O)OC(C(F)(F)F)C(F)(F)F)CC2)C1 [Example 2, 1,1,1,3,3,3-hexafluoropropan-2-yl (R)-4-(2-(3-(prop-2-yn-1-yloxy)pyrrolidin-1-yl)-4-(trifluoromethyl)benzyl)piperazine-1-carboxylate]
13 |  | < 25 | > 1000 | > 75 | < 100 | > 75 | < 100 | O=C(OC(C(F)(F)F)C(F)(F)F)N1CCN(Cc2ccc(C(F)(F)F)c(N3CCCC3CO)c2)CC1 (stereo not drawn) [Example 79, 1,1,1,3,3,3-hexafluoropropan-2-yl 4-(3-(2-(hydroxymethyl)pyrrolidin-1-yl)-4-(trifluoromethyl)benzyl)piperazine-1-carboxylate]
14 |  | < 25 | > 1000 | > 75 | > 1000 | > 75 | < 100 | O=C(O)C(=O)c1cc(C(F)(F)F)ccc1CN1CCN(C(=O)OC(C(F)(F)F)C(F)(F)F)CC1 [Example 76, 2-(2-((4-(((1,1,1,3,3,3-hexafluoropropan-2-yl)oxy)carbonyl)piperazin-1-yl)methyl)-5-(trifluoromethyl)phenyl)-2-oxoacetic acid]
15 |  | 25 to 75 | > 1000 | 25 to 75 | > 1000 | > 75 | < 100 | O=C(OC(C(F)(F)F)C(F)(F)F)N1CCN(Cc2ccc(Cl)cc2N2CC[C@H](N3CCCS3(=O)=O)C2)CC1 [Example 46, 1,1,1,3,3,3-hexafluoropropan-2-yl (S)-4-(4-chloro-2-(3-(1,1-dioxidoisothiazolidin-2-yl)pyrrolidin-1-yl)benzyl)piperazine-1-carboxylate]
